Results reported in ChEMBL document CHEMBL1125480, “Studies on antidiabetic agents. 11. Novel thiazolidinedione derivatives as potent hypoglycemic and hypolipidemic agents” (1992).

Legend:
Format in all cases: functional
Mus musculus [1] = species on record: Mus musculus; experiment: Maximum reduction in blood glucose levels in KKA mice at a dosage of 0.005% in diet
Mus musculus [2] = species on record: Mus musculus; experiment: Maximum reduction in plasma triglyceride levels in KKA mice at a dosage of 0.005% in diet
Mus musculus [3] = species on record: Mus musculus; experiment: Maximum reduction in blood glucose levels in KKA mice at a dosage of 0.001% in diet
Mus musculus [4] = species on record: Mus musculus; experiment: Effective dose to reduce 25% of glucose levels in blood
Mus musculus [5] = species on record: Mus musculus; experiment: Effective dose to reduce 25% of triglyceride levels in plasma
Mus musculus [6] = species on record: Mus musculus; experiment: Maximum reduction in plasma triglyceride levels in KKA mice at a dosage of 0.001% in diet
Mus musculus [7] = species on record: Mus musculus; experiment: Compound was tested for maximum reduction in plasma triglyceride levels in KKA mice at a dosage of 0.005% in diet

SMILES | Reduction (Mus musculus [1]) [%] | Reduction (Mus musculus [2]) [%] | Reduction (Mus musculus [3]) [%] | ED25 (Mus musculus [4]; Mus musculus, Blood) [mg/kg/day] | ED25 (Mus musculus [5]) [mg/kg/day] | Reduction (Mus musculus [6]) [%] | Reduction (Mus musculus [7]) [%] | ED25 (Mus musculus [4]) [mg/kg/day]
O=C1NC(=O)C(Cc2ccc(OCc3nc(-c4ccccc4)cs3)cc2)S1 (centres undefined) | 48 | 44 |  |  |  |  |  | 
Cc1oc(-c2cccs2)nc1CCOc1ccc(CC2SC(=O)NC2=O)cc1 (centres undefined) | 51 | 72 | 50 | 0.09 | 0.3 | 41 |  | 
Cc1oc(-c2ccccc2)nc1COc1ccc(CC2SC(=O)NC2=O)cc1 (centres undefined) | 21 | 44 | 23 | 3 | 5 | 17 |  | 
O=C1NC(=O)/C(=C/c2ccc(OCCc3csc(-c4ccccc4)n3)cc2)S1 | 57 | 57 | 49 | 0.6 | 1.3 | 44 |  | 
Cc1oc(C2CCCCC2)nc1C(O)COc1ccc(CC2SC(=O)NC2=O)cc1 (centres undefined) | 49 | 67 |  |  |  |  |  | 
Cc1nc(CCOc2ccc(CC3SC(=O)NC3=O)cc2)cs1 (centres undefined) | 42 | 52 | 17 | 4 | 4 | 15 |  | 
Cc1oc(-c2ccccc2)nc1C(O)COc1ccc(/C=C2\SC(=O)NC2=O)cc1 (centres undefined) | 56 | 60 | 36 | 0.9 | 0.3 | 54 |  | 
Cc1oc(-c2ccc(O)cc2)nc1CCOc1ccc(CC2SC(=O)NC2=O)cc1 (centres undefined) |  |  | 22 |  |  | 26 |  | 
O=C1NC(=O)C(Cc2ccc(OCc3nc4ccccc4s3)cc2)S1 (centres undefined) | 43 | 43 |  |  |  |  |  | 
CC(C)c1nc(CCOc2ccc(CC3SC(=O)NC3=O)cc2)cs1 (centres undefined) | 56 | 45 |  |  |  |  |  | 
Cc1nc(CCOc2ccc(CC3SC(=O)NC3=O)cc2)oc1-c1ccccc1 (centres undefined) | 18 | 7 |  |  |  |  |  | 
Cc1oc(C2(C)CCCCC2)nc1CCOc1ccc(/C=C2\SC(=O)NC2=O)cc1 | 24 | 9 |  |  |  |  |  | 
CSc1cccc(-c2nc(CCOc3ccc(/C=C4\SC(=O)NC4=O)cc3)c(C)o2)c1 | 52 | 58 |  |  |  |  |  | 
O=C1NC(=O)C(Cc2ccc(OCCc3nc(-c4ccccc4)oc3CO)cc2)S1 (centres undefined) | 31 | 39 |  |  |  |  |  | 
Cc1oc(-c2ccco2)nc1COc1ccc(CC2SC(=O)NC2=O)cc1 (centres undefined) | 43 | 35 |  |  |  |  |  | 
Cc1oc(-c2ccccc2)nc1C(=O)COc1ccc(CC2SC(=O)NC2=O)cc1 (centres undefined) | 52 | 67 |  |  |  |  |  | 
CCCc1nc(COc2ccc(CC3SC(=O)NC3=O)cc2)co1 (centres undefined) | 12 | 29 |  |  |  |  |  | 
O=C1NC(=O)C(Cc2ccc(OCc3csc(-c4ccccc4)n3)cc2)S1 (centres undefined) | 28 |  | 11 | 6 | 8 | 3 | 32 | 
Cc1nc(COc2ccc(CC3SC(=O)NC3=O)cc2)co1 (centres undefined) |  | 1 | 19 |  |  |  |  | 
Cc1oc(C2CCCCC2)nc1CCOc1ccc(CC2SC(=O)NC2=O)cc1 (centres undefined) | 52 | 71 | 51 | 0.2 | 0.6 | 58 |  | 

SMILES | Reduction (Mus musculus [1]) [%] | Reduction (Mus musculus [2]) [%] | Reduction (Mus musculus [3]) [%] | ED25 (Mus musculus [4]; Mus musculus, Blood) [mg/kg/day] | ED25 (Mus musculus [5]) [mg/kg/day] | Reduction (Mus musculus [6]) [%] | Reduction (Mus musculus [7]) [%] | ED25 (Mus musculus [4]) [mg/kg/day]
CCc1oc(-c2ccccc2)nc1CCOc1ccc(CC2SC(=O)NC2=O)cc1 (centres undefined) | 55 | 79 | 49 | 0.3 | 0.6 | 55 |  | 
Cc1oc(-c2ccccc2)nc1C(=O)COc1ccc(/C=C2\SC(=O)NC2=O)cc1 | 45 | 51 |  |  |  |  |  | 
O=C1NC(=O)C(Cc2ccc(OCCc3coc(C4CCCCC4)n3)cc2)S1 (centres undefined) |  |  | 31 | 1 | 9 | 14 |  | 
Cc1oc(-c2ccccc2)nc1CCOc1ccc(CC2SC(=O)NC2=O)cc1 (centres undefined) | 59 | 66 | 55 | 0.05 | 0.09 | 67 |  | 
Cc1nc(C(O)COc2ccc(CC3SC(=O)NC3=O)cc2)c(C)o1 (centres undefined) | 51 | 62 | 55 | 0.2 | 0.5 | 52 |  | 
Cc1nc(C(=O)COc2ccc(CC3SC(=O)NC3=O)cc2)c(C)o1 (centres undefined) | 39 | 27 |  |  |  |  |  | 
Cc1nc(CCOc2ccc(CC3SC(=O)NC3=O)cc2)co1 (centres undefined) | 37 | 42 | 13 |  | 3 | 20 |  | 5
CCCc1nc(CCOc2ccc(CC3SC(=O)NC3=O)cc2)co1 (centres undefined) | 52 | 65 | 29 | 2 | 2 | 26 |  | 
O=C1NC(=O)C(Cc2ccc(OCCc3csc(C4CCCCC4)n3)cc2)S1 (centres undefined) |  |  | 43 | 0.8 | 3 | 33 |  | 
Cc1oc(-c2ccc(Cl)cc2)nc1CCOc1ccc(/C=C2\SC(=O)NC2=O)cc1 | 54 | 58 |  |  |  |  |  | 
Cc1oc(-c2ccccc2)nc1CCCOc1ccc(CC2SC(=O)NC2=O)cc1 (centres undefined) | 21 | 29 |  |  |  |  |  | 
CSc1cccc(-c2nc(CCOc3ccc(CC4SC(=O)NC4=O)cc3)c(C)o2)c1 (centres undefined) | 52 | 67 |  |  |  |  |  | 
CCc1nc(CCOc2ccc(CC3SC(=O)NC3=O)cc2)cs1 (centres undefined) | 55 | 37 |  |  |  |  |  | 
Cc1oc(-c2ccccc2)nc1COc1ccc(/C=C2\SC(=O)NC2=O)cc1 | 37 | 40 |  |  |  |  |  | 
Cc1oc(-c2ccccc2Cl)nc1CCOc1ccc(CC2SC(=O)NC2=O)cc1 (centres undefined) |  |  | 52 |  |  | 57 |  | 
Cc1oc(CCOc2ccc(CC3SC(=O)NC3=O)cc2)nc1CC(C)C (centres undefined) | 53 | 43 |  |  |  |  |  | 
CCc1oc(CCOc2ccc(CC3SC(=O)NC3=O)cc2)nc1-c1ccccc1 (centres undefined) | 46 | 51 |  |  |  |  |  | 
Cc1oc(CCOc2ccc(CC3SC(=O)NC3=O)cc2)nc1C1CCCCC1 (centres undefined) | 54 | 51 |  |  |  |  |  | 
Cc1nc(COc2ccc(CC3SC(=O)NC3=O)cc2)cs1 (centres undefined) | 19 | 30 |  |  |  |  |  | 
Cc1oc(-c2ccccc2)nc1C(O)COc1ccc(CC2SC(=O)NC2=O)cc1 (centres undefined) | 58 | 81 | 54 | 0.05 | 0.1 | 62 |  | 

SMILES | Reduction (Mus musculus [1]) [%] | Reduction (Mus musculus [2]) [%] | Reduction (Mus musculus [3]) [%] | ED25 (Mus musculus [4]; Mus musculus, Blood) [mg/kg/day] | ED25 (Mus musculus [5]) [mg/kg/day] | Reduction (Mus musculus [6]) [%] | Reduction (Mus musculus [7]) [%] | ED25 (Mus musculus [4]) [mg/kg/day]
O=C1NC(=O)C(Cc2ccc(OCCc3csc(-c4ccccc4)n3)cc2)S1 (centres undefined) | 52 | 63 | 39 | 0.5 | 0.3 | 54 |  | 
Cc1oc(CCOc2ccc(CC3SC(=O)NC3=O)cc2)nc1-c1ccccc1 (centres undefined) | 54 | 60 |  |  |  |  |  | 
COc1ccc(-c2nc(CCOc3ccc(CC4SC(=O)NC4=O)cc3)c(C)o2)cc1 (centres undefined) | 55 | 72 | 53 | 0.3 | 0.6 | 63 |  | 
Cc1nc(C(O)COc2ccc(/C=C3\SC(=O)NC3=O)cc2)c(C)o1 (centres undefined) | 59 | 61 | 26 | 2.2 | 0.8 | 37 |  | 
Cc1cccc(-c2nc(CCOc3ccc(CC4SC(=O)NC4=O)cc3)c(C)o2)c1 (centres undefined) |  |  | 49 | 0.05 | 0.06 | 61 |  | 
CCc1oc(C)nc1CCOc1ccc(CC2SC(=O)NC2=O)cc1 (centres undefined) | 46 | 45 | 15 | 3 | 5 | 0 |  | 
Cc1oc(-c2cccs2)nc1CCOc1ccc(/C=C2\SC(=O)NC2=O)cc1 | 55 | 57 |  |  |  |  |  | 
Cc1nc(CCOc2ccc(CC3SC(=O)NC3=O)cc2)c(C)o1 (centres undefined) | 55 | 56 | 27 | 2 | 3 | 10 |  | 
Cc1oc(-c2ccccc2)nc1CCOc1ccc(/C=C2\SC(=O)NC2=O)cc1 |  |  | 55 | 0.4 | 0.2 | 65 |  | 
Cc1scnc1CCOc1ccc(CC2SC(=O)NC2=O)cc1 (centres undefined) | 52 | 45 |  |  |  |  |  | 
O=C1NC(=O)C(Cc2ccc(OCc3coc(-c4ccccc4)n3)cc2)S1 (centres undefined) | 48 | 51 | 16 | 3 | 4 | 12 |  | 
Cc1nc(C(=O)COc2ccc(/C=C3\SC(=O)NC3=O)cc2)c(C)o1 | 33 | 29 |  |  |  |  |  | 
CCc1oc(-c2ccccc2)nc1CCOc1ccc(/C=C2\SC(=O)NC2=O)cc1 | 54 | 59 |  |  |  |  |  | 
O=C1NC(=O)C(Cc2ccc(OCc3csc(-c4cccnc4)n3)cc2)S1 (centres undefined) | 25 | 30 |  |  |  |  |  | 
Cc1nc(CCOc2ccc(/C=C3\SC(=O)NC3=O)cc2)cs1 | 34 | 5 |  |  |  |  |  | 
COc1ccc(-c2nc(CCOc3ccc(CC4SC(=O)NC4=O)cc3)c(C)o2)cc1OC (centres undefined) |  |  | 52 | 0.5 | 0.6 | 54 |  | 
O=C1NC(=O)C(Cc2ccc(OCc3nc4ccccc4o3)cc2)S1 (centres undefined) | 35 | 24 |  |  |  |  |  | 
CC1(COc2ccc(CC3SC(=O)NC3=O)cc2)CCCCC1 (centres undefined) [CIGLITAZONE] |  |  |  | 31 | 25 |  |  | 
CCc1ccc(CCOc2ccc(CC3SC(=O)NC3=O)cc2)nc1.Cl (centres undefined) [PIOGLITAZONE HYDROCHLORIDE] |  |  |  | 6 | 6 |  |  | 
